Where two headings read alike, the source gives them in different places.
Key:
[1] = system: MOLM-13 (carrying MLL-AF9); assay: Inhibition of proliferation of human tumor cells (Alamar Blue, 7 days), MOLM-13; type: cell-based; conditions: Homo sapiens, MOLM-13 cells (carrying MLL-AF9), method calls the value GI50
How it was run: (§1)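 Cells seeded at 4,000/well (MV-4-11, MOLM-13) or 3,000/well (KG-1a) in serum-supplemented IMDM or RPMI-1640, 37°C, 5% CO2, then exposed to 3- or 4-fold compound dilutions in duplicate for 7 days. Alamar Blue fluorescence read; GI50 derived against Day 7 0.1% DMSO (high) and Day 0 (low) controls.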

MEIS1 gene expression [2] = assay: Inhibition of MEIS1 gene expression in human tumor cells (qRT-PCR), MV-4-11; type: cell-based; conditions: MV4-11, MV-4-11 (carrying MLL-AF4), 48 hours of incubation, relative MEIS1 gene expression vs GAPDH, read-out: MV-4-11 MEISI EC50
Source text: (§2) Experimental Example 3: Evaluation of Inhibitory Activity of Compounds Against MEISI Gene Expression in Human Tumor Cells
(§3) The effect of test samples on MEIS1 gene expression in vitro cultured human leukemia cells MV-4-11 (carrying MLL-AF4), MOLM-13 (carrying MLL-AF9), and OCI-AML3 (carrying NPM1c) was studied.
(§4) • Human acute lymphoblastic leukemia cells MV-4-11, purchased from American Type Culture Collection, Catalog Number: CRL-9591; • Human acute myeloid leukemia cells MOLM-13, purchased from COBIOER BIOSCIENCES CO., LTD, Catalog Number: CBP60678; • Human acute myeloid leukemia cells OCI-AML3, purchased from COBIOER BIOSCIENCES CO., LTD, Catalog Number: CBP60817; • MEIS1 Primer/Probe, purchased from IDT, Catalog Number: 40831613; and • GAPDH Primer/Probe, purchased from IDT, Catalog Number: 22214836.
(§5) MV-4-11 cells were cultured in an IMDM medium containing 10% fetal bovine serum, or MOLM-13 and OCI-AML3 cells were cultured in an RPMI-1640 medium containing 20% fetal bovine serum, each supplemented with 100 U·mL^-1 penicillin and 100 µg·mL^-1 streptomycin. These cells were cultured at 37°C with 5% CO2. The suspensions of individual cell lines were prepared in their respective media and seeded into 48-well plates at a density of 100,000 cells/well. On the day of the experiment, a compound stock solution was diluted in a 6-fold gradient using DMSO. Each gradient-diluted stock solution was then further diluted 250-fold with a complete medium to prepare a series of working solutions at different concentrations. Next, 250 µL of working solution (containing the complete medium with a 2-fold serial concentration of the test compound or a positive control compound, or containing a control complete medium) was added to each well. After 48 hours of incubation, cells from the 48-well plate were collected into 1 mL centrifuge tubes, centrifuged at 1000 rpm for 5 minutes, and the complete medium was removed. Cells were washed twice with 1 mL PBS and centrifuged to remove PBS. Total RNA was extracted using the RNeasy Mini Kit (250) (QIAGEN, 74106). The threshold cycle (Ct) value for gene expression was determined using the HiScript II U+ One Step qRT-PCR Probe Kit (Vazyme) (Vazyme, Q223-01), with 3 replicates per sample. The prepared reaction mixture was placed in an ABI 7500 real-time PCR instrument, and the reaction proceeded following the procedures below. [formula]
(§6) Next, for the relative MEIS1 gene expression, the concentration (EC50) that inhibits 50% of relative MEIS1 gene expression was calculated using GraphPad Prism 8 software.

Menin-MLL = target: T1, Menin-MLL (Homo sapiens, UniProt O00255); assay: Inhibitory activity against Menin-MLL binding (fluorescence polarization); conditions: 150 nM His-Menin, 15 nM FITC-MLL, 25°C for 60 min
T1 construct: His-Menin (M1-L615 end); purchased BIORTUS BP9210
T1 sequence (O00255 1-615 isoform O00255-1): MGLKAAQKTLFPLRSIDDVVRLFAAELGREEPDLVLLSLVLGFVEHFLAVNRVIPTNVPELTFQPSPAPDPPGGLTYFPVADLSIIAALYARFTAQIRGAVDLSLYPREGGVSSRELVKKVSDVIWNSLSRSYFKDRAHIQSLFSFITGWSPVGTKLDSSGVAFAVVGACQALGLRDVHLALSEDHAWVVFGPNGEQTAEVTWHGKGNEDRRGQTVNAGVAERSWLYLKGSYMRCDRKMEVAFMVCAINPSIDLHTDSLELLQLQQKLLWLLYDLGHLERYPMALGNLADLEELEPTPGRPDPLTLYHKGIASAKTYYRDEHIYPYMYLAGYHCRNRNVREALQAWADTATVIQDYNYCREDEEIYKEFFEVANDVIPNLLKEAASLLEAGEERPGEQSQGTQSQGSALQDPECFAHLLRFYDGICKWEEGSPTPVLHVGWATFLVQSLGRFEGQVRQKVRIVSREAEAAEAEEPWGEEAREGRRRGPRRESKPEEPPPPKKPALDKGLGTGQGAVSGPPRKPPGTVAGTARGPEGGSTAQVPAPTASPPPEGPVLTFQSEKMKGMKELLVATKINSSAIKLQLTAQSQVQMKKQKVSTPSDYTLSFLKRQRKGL
How it was run: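 His-Menin (M1-L615, 150 nM) preincubated with compound 15 min at 25 °C in HEPES pH 7.5, 50 mM NaCl, 1 mM DTT, 0.01% BSA, then 15 nM FITC-MLL4-43 peptide added for 60 min at 25 °C. Fluorescence polarization read; IC50 from 4-parameter logistic fit, duplicates.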

[3] = system: MV-4-11 (carrying MLL-AF4); assay: Inhibition of proliferation of human tumor cells (Alamar Blue, 7 days), MV-4-11; type: cell-based; conditions: Homo sapiens, MV4-11, 168 h, MV-4-11 cells (carrying MLL-AF4), method calls the value GI50
How it was run: as §1

MEIS1 gene expression [4] = assay: Inhibition of MEIS1 gene expression in human tumor cells (qRT-PCR), MOLM-13; type: cell-based; conditions: MOLM-13 (carrying MLL-AF9), 48 hours of incubation, relative MEIS1 gene expression vs GAPDH
Source text: as §2, §3, §4, §5, §6

[5] = fluorescence polarization, read-out: Menin-MLL IC50
[6] = Menin-MLL IC50, fluorescence polarization

IC50 ([1]; 168 h) | EC50 (MEIS1 gene expression [2]) | IC50 (Menin-MLL; [5]) | IC50 [3] | EC50 (MEIS1 gene expression [4]) | Structure (SMILES) | IC50 (Menin-MLL; [6]) | IC50 ([1]; MOLM-13, 168 h)
46 nM | 53 nM | 10.7 nM | 6.4 nM | – | Cc1nc(F)c2c(-c3ccc(F)cc3C(=O)N3CCOC[C@H]3C)cc(C3CN([C@@H](CO[C@H]4CCCN(C)C4)C(C)C)C3)cn12 [Example 321-1, (3R)-4-[5-fluoro-2-(1-fluoro-3-methyl-6-{1-[(2R)-3-methyl-1-{[(3S)-1-methylpiperidin-3-yl]oxy}butan-2-yl]azacyclobutan-3-yl}imidazo[1,5-a]pyridin-8yl)benzoyl]-3-methylmorpholine] | – | –
– | 4.6 nM | 2 nM | – | 5.5 nM | CCN(C(=O)c1cc(F)ccc1-c1cc(C2CN([C@H](CCCN3CCC[C@@H](O)C3)C(C)C)C2)cn2c(C)ncc12)C(C)C [Example 326] | – | –
– | 19 nM | 9 nM | – | 9.3 nM | CC(=O)N1CCN(CCC[C@H](C(C)C)N2CC(c3cc(-c4ccc(F)cc4C(=O)N4CCOC[C@H]4C)c4c(F)nc(C)n4c3)C2)C(C)(C)C1 [Example 336] | – | –
– | 63 nM | 11 nM | – | 17.9 nM | CC(=O)N1CCN(CCC[C@H](C(C)C)N2CC(c3cc(-c4ccc(F)cc4C(=O)N4CCOC[C@H]4C)c4c(F)nc(C)n4c3)C2)[C@@H](C)C1 [Example 329] | – | –
– | 63 nM | 14 nM | – | 20.3 nM | CC(=O)N1CCN(CCC[C@H](C(C)C)N2CC(c3cc(-c4ccc(F)cc4C(=O)N4CCOC[C@H]4C)c4c(F)nc(C)n4c3)C2)C[C@@H]1C [Example 331] | – | –
27 nM | 42 nM | 12 nM | 9.1 nM | – | Cc1nc(F)c2c(-c3ccc(F)cc3C(=O)N3CCC[C@H]3C)cc(C3CN(C(C)C4CCOCC4)C3)cn12 (stereo partly shown) [Example 188] | – | –
– | 26 nM | 10 nM | – | 6 nM | Cc1nc(F)c2c(-c3ccc(F)cc3C(=O)N3CCOC[C@H]3C)cc(C3CN([C@H](CCCN4CCN(C(=O)C5CC5)CC4)C(C)C)C3)cn12 [Example 341] | – | –
44 nM | 89 nM | 33 nM | 29 nM | – | CC(=O)N1CCC(CN2CC(c3cc(-c4ccc(F)cc4C(=O)N4CCC[C@H]4C)c4c(F)nc(C)n4c3)C2)CC1 [Example 189] | – | –
– | 27 nM | 9 nM | – | 1.8 nM | Cc1nc(F)c2c(-c3ccc(F)cc3C(=O)N3CCOC[C@H]3C)cc(C3CN([C@H](CCCN4CCN(C(=O)C(C)C)CC4)C(C)C)C3)cn12 [Example 338] | – | –

Structure (SMILES) | IC50 ([1]; 168 h) | EC50 (MEIS1 gene expression [2]) | IC50 (Menin-MLL; [5]) | IC50 [3] | EC50 (MEIS1 gene expression [4]) | IC50 (Menin-MLL; [6]) | IC50 ([1]; MOLM-13, 168 h)
CCN(C(=O)c1cc(F)ccc1-c1cc(C2CCN(C[C@H]3CC[C@H](NS(=O)(=O)CC)CC3)C2)cn2c(C)ncc12)C(C)C (mixture of isomers) [Example 30, N-ethyl-5-fluoro-2-[3-methyl-6-(1-{[(1r,4r)-4-ethanesulfonamidocyclohexyl]methyl}pyrrolidin-3-yl)imidazo[1,5-a]pyridin-8-yl]-N-(isopropyl)benzamide] | – | 20 nM | – | – | – | 6 nM | –
Cc1ncc2c(-c3ccc(F)cc3C(=O)N3CCOC[C@H]3C)cc(C3CN([C@H](CCCN4CCN(C5CC5)CC4)C(C)C)C3)cn12 [Example 325] | – | 7.6 nM | – | – | 4.2 nM | 3.2 nM | –
CC(=O)N1CC2CC(C1)N2CCC[C@H](C(C)C)N1CC(c2cc(-c3ccc(F)cc3C(=O)N3CCOC[C@H]3C)c3c(F)nc(C)n3c2)C1 [Example 346] | 8.3 nM | 10 nM | 3.8 nM | – | 5 nM | – | –
Cc1cncc2c(-c3ccc(F)cc3C(=O)N3CCOC[C@H]3C)cc(CC3CN(CC4CCOCC4)C3)n12 [Example 260] | – | 7.6 nM | 3 nM | 7.1 nM | – | – | 10 nM

— patent EP4782453A1 (Beyang Therapeutics Co., Ltd., priority 2023, dated 2025)
